# Data as given in a melting point compilation (Tetko et al.; mined from patent text by program, amines drawn as free bases though some values may be those of a salt).
row,Compound,melting point [°C]
1,O=C(N[C@H](Cc1ccc(F)cc1)[C@@H](O)c1ccc(F)cc1)c1cccc2ccccc12 (racemic),199 to 200
2,OC(Cn1ccnc1)(c1ccc(-c2ccccc2)cc1)c1ccccc1Cl (centres undefined),222
3,COc1ccc(-n2c3ccccc3c3cc(C=C(C#N)c4cc(F)cc(F)c4)ccc32)cc1,200 to 203
4,Cc1ccc(OCCCCCOc2ccc3ccc(=O)oc3c2)cn1,101 to 102
5,CCOCn1c(S(=O)(=O)C(F)(F)C(F)Cl)c(C#N)c2ccccc21 (centres undefined),97 to 100
6,O=c1[nH]c2ccc(-c3cccc([N+](=O)[O-])c3)cc2s1,276 to 277
7,C/C=C/C1CCC2c3ccc(OCC)c(F)c3OC2C1 (centres undefined),145
8,Cn1cc(-c2ccc3nc(NC(=O)c4ccc(C(C)(C)C)nc4)cn3c2)cn1,228 to 230
9,NCc1ccc2c(c1)nc(CN1C(=O)N(C3CC3)Cc3ccccc31)n2CCCC(F)(F)F,154
10,COc1cc2oc(=O)c3c(c2cc1OC)CCNC3,186 to 188
11,COc1ccc(-c2ccc(C(=O)Nc3ccc4cc(CN5CCCC5)cnc4c3C)c(F)c2)cc1,164 to 166
12,NS(=O)(=O)C1=CCC(n2nc(C(F)(F)F)c3ccc4ccccc4c32)C=C1 (centres undefined),257 to 258
13,Nc1c(F)c(F)c(F)c(F)c1S(=O)(=O)O,272 to 276
14,CCCCCCCCCCCCCOc1ccc(C(C)=O)o1,61 to 62
15,CC(Cl)CNc1cccc(C(N)=O)c1 (centres undefined),193 to 194
16,CCOC(Cc1ccc(OCCN2CCOc3ccccc32)cc1)C(N)=O (centres undefined),107 to 109
17,CN(CCOc1ccc(C(N)=O)cc1)CCc1ccc([N+](=O)[O-])cc1,116 to 118
18,NS(=O)(=O)c1ccc(OCCOc2ccc(C(=O)C(=O)O)cc2)cc1,178 to 179
19,CS(=O)(=O)c1ccc(C(=O)N[C@H]2CC[C@H](CCN3CCC(c4cccc5c4CCO5)CC3)CC2)s1,255
20,COc1cc(-c2ccsc2)cc2oc(=O)c(C)c(C)c12,158 to 160
21,CCCCCOc1ccc(-c2ccc(CC(=O)c3ccccc3)cc2)cc1,86
22,CCOC(=O)c1ncn2c3ccccc3c(=O)n(C)c12,211 to 212
23,O=C(CCc1ccccc1)N[C@H](Cc1ccc(C(F)(F)F)cc1)[C@@H](O)c1ccccc1F (racemic),124 to 125

row,Compound,melting point [°C]
1,CCOC(=O)C1=C(CO)NC(C)=C(C(=O)OCCOCc2ccccc2)C1c1ccccc1[N+](=O)[O-] (centres undefined),96 to 97
2,O=C(c1ccc(-c2cccc3ccccc23)nc1)N1Cc2cccn2Cc2ccccc21,155 to 158
3,COC(=O)CC/C(C)=C/Cc1c(OC)c(C)c2c(c1C(=O)O)C(=O)OC2,169 to 170
4,COC(=O)CCCCC(=O)Nc1ccc(C(=O)NN=C2C(=O)Nc3ccc(I)cc32)cc1,277
5,COc1nc2cc([N+](=O)[O-])c(C)c(C(=O)Nc3ccccc3)c2nc1OC,238 to 240
6,Clc1ccc(C2CCN(CCCOc3ccc4c(c3)CNCCC4)CC2)cc1,97 to 99
7,Cc1nc(N2C(=O)CN(c3ccc(F)cc3)C2=O)sc1C(=O)NCc1ccccc1,217 to 219
8,Nc1nc2ccc(S(=O)(=O)n3c(CCCC(=O)O)cc4cc(Cl)ccc43)cc2s1,155 to 162
9,Cc1ccc(S(=O)(=O)N2[C@@H](CCC(N)=O)CC[C@H]2c2ccc(F)cc2)cc1 (racemic),136
10,CCCCCCCCCCCCc1nc(NC(=O)Nc2c(C(C)C)cccc2C(C)C)n[nH]1,154 to 164
11,COC(=O)C(Cc1c[nH]c2ccccc12)NC1CCC(c2ccccc2)(N(C)C)CC1 (centres undefined),60 to 65
12,CCOC(=O)/C=C/c1nc(COc2ccc(CO)cc2OC)c(C)o1,96 to 97
13,CC1CCCN(c2ccc([N+](=O)[O-])cc2C(=O)c2ccc(Cl)cc2)C1 (centres undefined),112
14,CC(C)(C)OC(=O)N1CCC(C(=O)NC2=NCCCN2)CC1,155 to 160
15,CCCc1nnc(-c2ccc(N(C)C)cc2)n1-c1ccc(OC)cc1,160
16,CCc1cnc(-n2cc(CCCOc3c(CC(=O)O)cccc3OC)c(C(C)C)n2)nc1,103 to 104
17,Cc1nc2ccc(Cl)cn2c(=O)c1CCN1CCN(c2cccc(Cl)c2)CC1,152 to 154
18,CCN(CCO)CCN1C(=O)c2ccccc2C1=O,56 to 58
19,CCOP(=O)(OCC)C(O[Si](C)(C)C)c1ccc(OC)c(C)c1 (centres undefined),37
20,N#CC1=C(c2ccccc2)Nc2n[nH]cc2C1c1cccc2c1OCCC2 (centres undefined),255
21,O=C(NC(Cc1ccc(OCc2ccccc2)cc1)C(=O)O)c1cn2cc(-c3cccnc3)ccc2n1 (centres undefined),244
22,COc1ccc(CS(=O)(=O)/C(=C/c2c(OC)cc(OC)cc2OC)C(=O)c2ccc(OC)cc2)cc1,60 to 62
23,CCCCN(Cc1ccc(-c2ccccc2-c2nnn[nH]2)cc1)c1ncc(C(=O)OCC)s1,65 to 70

row,Compound,melting point [°C]
1,CC[C@@H](c1ccccc1)N(Cc1ccc(C(=O)O)cc1)S(=O)(=O)c1ccc(F)c(F)c1,108 to 109
2,O=C(NCCCl)Nc1ccc2cn[nH]c2c1,253 to 258
3,Cc1nc2c(-c3ccc(-c4ccccc4)cc3)nc3ccc(F)cc3c2c(=O)o1,188 to 189
4,CC(C)(C)[Si](C)(C)OC1C(=O)N(S(=O)(=O)c2ccc(N3CCCCCC3)cc2)CC1O (centres undefined),121
5,NC(=O)CCCCCCBr,84
6,Cc1nn(-c2c(Cl)cc(C(F)(F)F)cc2Cl)c(N)c1C#C[Si](C)(C)C,121 to 123
7,C=C(Br)n1ccnc1[N+](=O)[O-],80 to 82
8,CCOC(=O)/C=C(C)/C=C/C=C(\C)C1=Cc2cc(C)cc(C)c2OC1,122
9,COc1ccc(C)c(N2CCN(C(=O)N(C)c3cc(C)c(C)nc3OC)CC2)c1,91 to 93
10,Nc1cccc(C(=O)Nc2ccc(NNC=O)cc2)c1,177 to 178
11,CC(C)c1cc(-c2ccccn2)c(-c2ccc(F)cc2)n1CCC=O,120 to 122
12,Cn1cc(C#N)c(=O)c2cc3cc(F)c(F)cc3nc21,380
13,CCCc1c(C(=O)N(C)C)c2ccc(C(N)=O)cc2n1Cc1ccccc1Cl,213 to 214
14,Brc1cccc(Nc2ncnc3cc4c(cc23)OC(CN2CCOCC2)CO4)c1 (centres undefined),229 to 230
15,COc1cc(CCl)ccc1OCc1nc(-c2cccc(OS(C)(=O)=O)c2)oc1C,112 to 114
16,Cc1ccc(C(O[Si](C)(C)C(C)(C)C)C(=O)NO)cc1 (centres undefined),109 to 111
17,O=c1oc2cc(O)ccc2c(O)c1C1=CCOc2oc3ccccc3c(=O)c21,> 300
18,CCOC(=O)c1cc2c(C)noc2nc1C(=O)OCC,95 to 99
19,CCOc1ccccc1C=C1CCc2c1oc1ccc(C(=O)OC)cc1c2=O,189 to 192
20,CNC(=O)N(O)C(C)C#Cc1ccc(Cl)cc1 (centres undefined),151 to 153
21,CCCC1NC(C(=O)O)Cc2c1[nH]c1ccccc21 (centres undefined),210 to 211
22,CCCN(c1ccncc1)n1cc(C)c2cc(OCc3ccccc3)ccc21,165 to 167
23,CCOC(=O)COc1c(CC=C(C)C)c(OC)cc(OC)c1C(=O)C=Cc1ccc(OC)cc1,85 to 86
